# Results as given in ChEMBL document CHEMBL4251641, “Biotin conjugated organic molecules and proteins for cancer therapy: A review” (Eur J Med Chem, 2018).
# Where a SMILES comes first, the peptide text is derived from it. Bridges are numbered along the chain shown (N, C = ends).
# Experiments:
# [1] = Half life in human plasma; format: ADME, cell-free
# [2] = Inhibition of high-voltage activated calcium channel (unknown origin) expressed in NG108-15 cells at -90 mV holding potential by whole cell patch clamp assay; format: cell-based; conditions: Homo sapiens
# [3] = Selectivity ratio of IC50 for human WI38 cells to IC50 for mouse L1210FR cells; format: toxicity; conditions: WI38 cells and L1210FR cells, read-out: Ratio IC50
# [4] = Cytotoxicity against mouse L1210FR cells assessed as cell growth inhibition after 72 hrs by MTT assay; format: functional, cell-based
# L1210 = experiment: Cytotoxicity against mouse L1210 cells assessed as cell growth inhibition after 72 hrs by MTT assay; format: functional, cell-based; conditions: L1210, 72 h
# WI-38 = experiment: Cytotoxicity against human WI38 cells assessed as cell growth inhibition after 72 hrs by MTT assay; format: cell-based; conditions: WI-38, 72 h
# [5] = Selectivity ratio of IC50 for mouse L1210 cells to IC50 for mouse L1210FR cells; format: functional
smiles,measurement,setting,value
Nc1ccn([C@@H]2O[C@H](CO)[C@@H](O)C2(F)F)c(=O)n1 [GEMCITABINE],half-life,[1],9 to 13 min
"CC(C)C[C@H](NC(=O)[C@H](CCCCN)NC(=O)[C@H](Cc1c[nH]c2ccccc12)NC(=O)[C@H](CCCCN)NC(=O)[C@@H]1CSSC[C@@H]2NC(=O)[C@H](CCC(=O)O)NC(=O)[C@H](CC(N)=O)NC(=O)[C@H](CCCCN)NC(=O)CNC(=O)[C@@H]3CCCN3C(=O)[C@H]([C@@H](C)O)NC(=O)[C@@H]3CSSC[C@H](NC(=O)[C@H](C(C)C)NC(=O)[C@H](CCCNC(=N)N)NC(=O)[C@H](CC(N)=O)NC(=O)[C@@H]4CCCN4C(=O)[C@H](CSSC[C@H](NC(=O)[C@H](C)N)C(=O)N[C@@H](CCCCN)C(=O)NCC(=O)N[C@@H](C(C)C)C(=O)N[C@@H](Cc4ccccc4)C(=O)N[C@@H](CC(=O)O)C(=O)N[C@@H](C)C(=O)N3)NC2=O)C(=O)N[C@@H](CO)C(=O)N[C@@H](CC(=O)O)C(=O)N[C@@H](CCCCN)C(=O)N[C@@H](Cc2cnc[nH]2)C(=O)N[C@@H](CCCCN)C(=O)N[C@@H](Cc2c[nH]c3ccccc23)C(=O)N1)C(=O)O (H-ACKGVFDACTPGKNECCPNRVCSDKHKWCKWKL-OH; disulfide 2-17, 9-22, 16-29)",EC50,[2],100 nM
CC(=O)O[C@@]12CO[C@@H]1C[C@H](O)[C@@]1(C)C(=O)[C@H](OC(=O)C3CC3)C3=C(C)[C@@H](OC(=O)[C@H](OC(=O)Cc4ccccc4SSCCC(=O)NNC(=O)CCCC[C@@H]4SC[C@@H]5NC(=O)N[C@@H]54)[C@H](C=C(C)C)NC(=O)OC(C)(C)C)C[C@@](O)([C@@H](OC(=O)c4ccccc4)[C@H]21)C3(C)C,selectivity ratio,[3],65
same,IC50,[4],8.8 nM
same,IC50,L1210,522 nM
same,IC50,WI-38,570 nM
same,Ratio IC50,[5],59
